# Measurements reported in US20160151335A1, “METHODS OF MODULATING CFTR ACTIVITY” (PROTEOSTASIS THERAPEUTICS, INC., priority 2013, published 2016).
# Biological target: T1, ΔF508-CFTR (Homo sapiens, UniProt P13569, DEL508-508)
# T1 construct: Primary lung epithelial cells (hBEs) homozygous for the Cystic Fibrosis-causing ΔF508 mutation; endogenous in cells; host or cells: primary lung (bronchial) epithelial cells (hBE) homozygous for ΔF508, differentiated at an air-liquid interface
# Assay: Ussing chamber short-circuit current measurement, CFTRinh-172-inhibitable current
# Type: cell-based
# Conditions: compound at 10 uM alone, 24 h, primary hBE cells homozygous ΔF508; relative to VX-809 (1 uM)
# Method: Primary lung epithelial cells (hBEs) homozygous for the Cystic Fibrosis-causing ΔF508 mutation were differentiated for a minimum of 4 weeks in an air-liquid interface on SnapWell filter plates prior to the Ussing measurements. Cells were apically mucus-washed for 30 minutes prior to treatment with compounds. The basolateral media was removed and replaced with media containing the compound of interest diluted to its final concentration from DMSO stocks. Treated cells were incubated at 37° C. and 5% CO2 for 24 hours. At the end of the treatment period, the cells on filters were transferred to the Ussing chamber and equilibrated for 30 minutes. The short-circuit current was measured in voltage clamp-mode (Vhold=0 mV), and the entire assay was conducted at a temperature of 36° C.-36.5° C. Once the voltages stabilized, the chambers were clamped, and data was recorded by pulse readings every 5 seconds. Following baseline current stabilization, the following additions were applied and the changes in current and resistance of the cells monitored: • 1. Benzamil to the apical chamber to inhibit ENaC sodium channel. • 2. Forskolin to both chambers to activate ΔF508-CFTR by phosphorylation. • 3. Genistein to both chambers to potentiate ΔF508-CFTR channel opening. • 4. CFTRinh-172 to the apical chamber to inhibit ΔF508-CFTR Cl− conductance.
# The inhibitable current (that current that is blocked by CFTRinh-172) was measured as the specific activity of the ΔF508-CFTR channel, and increases in response to compound in this activity over that observed in vehicle-treated samples were identified as the correction of ΔF508-CFTR function imparted by the compound tested. ++ indicates activity ≧25% of VX-809 (1 uM) with compound at 10 uM and VX-809 at 1 uM; ** indicates activity ≧200% of VX-809 (1 uM) with compound at 10 uM and VX-809 at 1 uM; ** indicates activity 100-200% of VX-809 (1 uM) with compound at 10 uM and VX-809 at 1 uM; The transepithelial resistance (TER) for these compounds are within 30% of DMSO controls.
# T1 sequence (P13569 with tags, fused parts or gaps DEL508-508): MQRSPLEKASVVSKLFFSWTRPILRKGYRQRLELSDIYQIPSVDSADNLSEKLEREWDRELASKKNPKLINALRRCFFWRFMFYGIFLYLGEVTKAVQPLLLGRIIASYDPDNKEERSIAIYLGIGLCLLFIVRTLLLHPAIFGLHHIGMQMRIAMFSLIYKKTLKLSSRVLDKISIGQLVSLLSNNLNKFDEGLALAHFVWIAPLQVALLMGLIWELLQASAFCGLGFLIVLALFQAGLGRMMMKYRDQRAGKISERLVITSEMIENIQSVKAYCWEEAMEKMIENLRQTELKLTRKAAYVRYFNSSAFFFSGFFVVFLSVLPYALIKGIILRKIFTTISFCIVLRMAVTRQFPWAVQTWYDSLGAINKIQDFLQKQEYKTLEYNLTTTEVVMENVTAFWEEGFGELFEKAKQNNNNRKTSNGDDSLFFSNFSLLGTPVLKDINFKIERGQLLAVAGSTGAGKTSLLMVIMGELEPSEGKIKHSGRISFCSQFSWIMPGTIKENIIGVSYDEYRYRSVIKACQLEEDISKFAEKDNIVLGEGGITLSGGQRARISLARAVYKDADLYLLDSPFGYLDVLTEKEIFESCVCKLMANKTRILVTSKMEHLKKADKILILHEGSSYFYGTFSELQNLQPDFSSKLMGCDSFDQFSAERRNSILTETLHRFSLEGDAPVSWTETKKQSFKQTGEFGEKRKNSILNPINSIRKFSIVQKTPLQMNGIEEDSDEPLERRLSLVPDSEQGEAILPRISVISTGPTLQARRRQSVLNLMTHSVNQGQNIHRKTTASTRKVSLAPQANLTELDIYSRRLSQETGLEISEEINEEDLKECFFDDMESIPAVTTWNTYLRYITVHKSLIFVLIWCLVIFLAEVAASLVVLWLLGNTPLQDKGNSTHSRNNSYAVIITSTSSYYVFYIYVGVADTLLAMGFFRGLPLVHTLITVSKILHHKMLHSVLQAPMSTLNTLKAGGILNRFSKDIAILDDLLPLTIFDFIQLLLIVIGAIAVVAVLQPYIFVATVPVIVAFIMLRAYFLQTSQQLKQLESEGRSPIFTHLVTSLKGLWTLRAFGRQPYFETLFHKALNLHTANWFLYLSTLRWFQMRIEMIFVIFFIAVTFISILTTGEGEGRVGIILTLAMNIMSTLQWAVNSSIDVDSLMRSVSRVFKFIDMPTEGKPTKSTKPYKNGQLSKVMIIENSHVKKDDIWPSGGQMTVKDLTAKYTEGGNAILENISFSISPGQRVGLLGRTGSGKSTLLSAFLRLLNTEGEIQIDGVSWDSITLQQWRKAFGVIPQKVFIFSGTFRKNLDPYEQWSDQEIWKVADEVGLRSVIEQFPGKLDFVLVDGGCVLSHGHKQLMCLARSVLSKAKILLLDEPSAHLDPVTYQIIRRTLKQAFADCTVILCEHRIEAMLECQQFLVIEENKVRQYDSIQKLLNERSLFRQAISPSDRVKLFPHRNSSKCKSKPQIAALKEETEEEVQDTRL
row,Structure (SMILES),Solo % VX809 (Ussing activity)
1,Cc1cn(CCNC(=O)c2cc(-c3ccccc3)on2)nn1 [Compound 9],++ (++ indicates activity ≧25% of VX-809 (1 uM) with compound at 10 uM and VX-809 at 1 uM)
2,O=C(NCCCn1ccnc1)c1cc(-c2ccccc2)on1 [Compound 16],++ (++ indicates activity ≧25% of VX-809 (1 uM) with compound at 10 uM and VX-809 at 1 uM)
3,Cn1ccnc1SCCNC(=O)c1cc(-c2ccccc2)on1 [Compound 18],++ (++ indicates activity ≧25% of VX-809 (1 uM) with compound at 10 uM and VX-809 at 1 uM)

# Same assay, conditions: compound at 10 uM with VX-809 at 1 uM, 24 h, primary hBE cells homozygous ΔF508; relative to VX-809 (1 uM)
row,Structure (SMILES),Combination % VX809 (Ussing activity)
1,O=C(NCCCn1ccnc1)c1cc(-c2ccccc2)on1 [Compound 16],** (** indicates activity ≧200% of VX-809 (1 uM) with compound at 10 uM and VX-809 at 1 uM)
2,Cn1ccnc1SCCNC(=O)c1cc(-c2ccccc2)on1 [Compound 18],** (** indicates activity ≧200% of VX-809 (1 uM) with compound at 10 uM and VX-809 at 1 uM)

# Biological target: T1, ΔF508-CFTR
# Assay: hBE equivalent current (Ieq) assay, AUC of equivalent chloride current
# Type: cell-based
# Conditions: compound at 10 uM, 24 h, primary hBE cells homozygous ΔF508; AUC increase relative to VX-809 at 1 uM
# Method: Primary lung epithelial cells homozygous for the Cystic Fibrosis-causing ΔF508 mutation were differentiated for a minimum of 4 weeks in an air-liquid interface on Costar 24 well HTS filter plates prior to the equivalent current (Ieq) measurements. Cells were apically mucus-washed for 30 minutes 24 h prior to treatment with compounds. The basolateral media was removed and replaced with media containing the compound of interest diluted to its final concentration from DMSO stocks. Treated cells were incubated at 37° C. and 5% CO2 for 24 hours. At the end of the treatment period, the media was changed to the Ieq experimental solution for 30 minutes before the experiment and plates are maintained in a CO2-free incubator during this period. The plates containing the cells were then placed in pre-warmed heating blocks at 36° C.±0.5 for 15 minutes before measurements are taken. The transepithelial voltage (VT) and conductance (GT) were measured using a custom 24 channel current clamp (TECC-24) with 24 well electrode manifold. The Ieq assay measurements were made following additions with standardized time periods: • 1. The baseline VT and GT values were measured for approximately 20 minutes. • 2. Benzamil was added to block ENaC for 15 minutes. • 3. Forskolin plus VX-770 were added to maximally activate ΔF508-CFTR for 27 minutes. • 4. Bumetanide was added to inhibit the NaK2Cl cotransporter and shut-off secretion of chloride. The activity data captured was the area under the curve (AUC) for the traces of the equivalent chloride current. The AUC was collected from the time of the forskolin/VX-770 addition until the inhibition by bumetanide addition. Correction in response to compound treatment was scored as the increase in the AUC for compound-treated samples over that of vehicle-treated samples. (++ indicates activity ≧25% run at 10 uM of VX-809 at 1 uM, + indicates activity 10 to ≦25% run at 10 uM of VX-809 at 1 uM.
row,Structure (SMILES),Ieq hBE Activity
1,O=C(NCCCn1ccnc1)c1cc(-c2ccccc2)on1 [Compound 16],++ (++ indicates activity ≧25% run at 10 uM of VX-809 at 1 uM)
2,Cn1ccnc1SCCNC(=O)c1cc(-c2ccccc2)on1 [Compound 18],++ (++ indicates activity ≧25% run at 10 uM of VX-809 at 1 uM)
3,O=C(NCCCc1ccoc1)c1cc(-c2ccccc2)on1 [Compound 194],+ (+ indicates activity 10 to ≦25% run at 10 uM of VX-809 at 1 uM)
4,Cn1cncc1CCCNC(=O)c1cc(-c2ccccc2)on1 [Compound 195],++ (++ indicates activity ≧25% run at 10 uM of VX-809 at 1 uM)
5,Cn1cnc(CCCNC(=O)c2cc(-c3ccccc3)on2)c1 [Compound 197],++ (++ indicates activity ≧25% run at 10 uM of VX-809 at 1 uM)
6,Cn1ccc(CCCNC(=O)c2cc(-c3ccccc3)on2)c1 [Compound 198],++ (++ indicates activity ≧25% run at 10 uM of VX-809 at 1 uM)
7,O=C(NCCCn1nccc1C1CC1)c1cc(-c2ccccc2)on1 [Compound 200],++ (++ indicates activity ≧25% run at 10 uM of VX-809 at 1 uM)
8,Nc1nnc(CCCNC(=O)c2cc(-c3ccccc3)on2)s1 [Compound 201],++ (++ indicates activity ≧25% run at 10 uM of VX-809 at 1 uM)
9,O=C(NCCCn1ncc2ccccc21)c1cc(-c2ccccc2)on1 [Compound 204],++ (++ indicates activity ≧25% run at 10 uM of VX-809 at 1 uM)
10,O=C(NCCCn1nnc2ccccc21)c1cc(-c2ccccc2)on1 [Compound 205],++ (++ indicates activity ≧25% run at 10 uM of VX-809 at 1 uM)
11,O=C(NCCCc1cccnc1)c1cc(-c2ccccc2)on1 [Compound 207],++ (++ indicates activity ≧25% run at 10 uM of VX-809 at 1 uM)
12,O=C(NCCCC(F)(F)F)c1cc(-c2cccs2)on1 [Compound 223],++ (++ indicates activity ≧25% run at 10 uM of VX-809 at 1 uM)
13,COCCNC(=O)c1cc(-c2cccs2)on1 [Compound 224],++ (++ indicates activity ≧25% run at 10 uM of VX-809 at 1 uM)
14,O=C(NCC1CCCO1)c1cc(-c2cccs2)on1 (centres unmarked) [Compound 225],++ (++ indicates activity ≧25% run at 10 uM of VX-809 at 1 uM)
15,O=C(NCC1CCOC1)c1cc(-c2cccs2)on1 (centres unmarked) [Compound 226],++ (++ indicates activity ≧25% run at 10 uM of VX-809 at 1 uM)
16,O=C(NCCn1nccn1)c1cc(-c2cccs2)on1 [Compound 228],++ (++ indicates activity ≧25% run at 10 uM of VX-809 at 1 uM)
17,O=C(NCCN1CCOCC1)c1cc(-c2cccs2)on1 [Compound 229],+ (+ indicates activity 10 to ≦25% run at 10 uM of VX-809 at 1 uM)
18,O=C(NCCC1CCOCC1)c1cc(-c2cccs2)on1 [Compound 230],++ (++ indicates activity ≧25% run at 10 uM of VX-809 at 1 uM)
19,O=C(NCCc1ccccn1)c1cc(-c2cccs2)on1 [Compound 232],++ (++ indicates activity ≧25% run at 10 uM of VX-809 at 1 uM)
20,O=C(NCCc1cccnc1)c1cc(-c2cccs2)on1 [Compound 233],+ (+ indicates activity 10 to ≦25% run at 10 uM of VX-809 at 1 uM)

row,Structure (SMILES),Ieq hBE Activity
1,O=C(NCCc1ccncc1)c1cc(-c2cccs2)on1 [Compound 234],++ (++ indicates activity ≧25% run at 10 uM of VX-809 at 1 uM)
2,O=C(NCCCn1ccnc1)c1cc(-c2cccs2)on1 [Compound 237],++ (++ indicates activity ≧25% run at 10 uM of VX-809 at 1 uM)
3,O=C(NCCCCc1ccncc1)c1cc(-c2cccs2)on1 [Compound 239],+ (+ indicates activity 10 to ≦25% run at 10 uM of VX-809 at 1 uM)
4,CN(CC1CCCO1)C(=O)c1cc(CN2CCOCC2)on1 (centres unmarked) [Compound 256],+ (+ indicates activity 10 to ≦25% run at 10 uM of VX-809 at 1 uM)
5,Cn1nncc1CCCNC(=O)c1cc(-c2ccccc2)on1 [Compound 295],+ (+ indicates activity 10 to ≦25% run at 10 uM of VX-809 at 1 uM)
6,O=C(NCC1CCCO1)c1cc(-c2ccco2)on1 (centres unmarked) [Compound 321],+ (+ indicates activity 10 to ≦25% run at 10 uM of VX-809 at 1 uM)
7,COCCNC(=O)c1cc(-c2ccccc2)on1 [Compound 329A],++ (++ indicates activity ≧25% run at 10 uM of VX-809 at 1 uM)
8,CCNC(=O)c1cc(-c2ccccc2)on1 [Compound 336],++ (++ indicates activity ≧25% run at 10 uM of VX-809 at 1 uM)
9,CCCCNC(=O)c1cc(-c2ccc(F)cc2)on1 [Compound 342],++ (++ indicates activity ≧25% run at 10 uM of VX-809 at 1 uM)
10,O=C(N[C@H]1CC[C@H](O)CC1)c1cc(-c2ccccc2)on1 [Compound 343],+ (+ indicates activity 10 to ≦25% run at 10 uM of VX-809 at 1 uM)
11,Cc1nnsc1CNC(=O)c1cc(-c2ccccc2)on1 [Compound 344],+ (+ indicates activity 10 to ≦25% run at 10 uM of VX-809 at 1 uM)
12,O=C(Nc1cccnc1)c1cc(-c2ccccc2)on1 [Compound 345],+ (+ indicates activity 10 to ≦25% run at 10 uM of VX-809 at 1 uM)
13,O=C(NCCCCO)c1cc(-c2cccs2)on1 [Compound 349],++ (++ indicates activity ≧25% run at 10 uM of VX-809 at 1 uM)
14,COCc1nc(CNC(=O)c2cc(-c3ccccc3)on2)no1 [Compound 372],++ (++ indicates activity ≧25% run at 10 uM of VX-809 at 1 uM)
15,O=C(NCCNC(=O)c1cc(-c2ccccc2)on1)c1cccnc1 [Compound 373],++ (++ indicates activity ≧25% run at 10 uM of VX-809 at 1 uM)
16,CCc1ncc(CCNC(=O)c2cc(-c3ccccc3)on2)s1 [Compound 374],+ (+ indicates activity 10 to ≦25% run at 10 uM of VX-809 at 1 uM)
17,Cc1ncc(NCCNC(=O)c2cc(-c3ccccc3)on2)[nH]c1=O [Compound 375],+ (+ indicates activity 10 to ≦25% run at 10 uM of VX-809 at 1 uM)
18,O=C(NCCn1ccnn1)c1cc(-c2ccccc2)on1 [Compound 376],++ (++ indicates activity ≧25% run at 10 uM of VX-809 at 1 uM)
19,O=C(NCCn1ccnn1)c1cc(-c2cccs2)on1 [Compound 377],++ (++ indicates activity ≧25% run at 10 uM of VX-809 at 1 uM)
